These results are taken from article PMC8027839 (Scientific Reports, 2021).

Each structure is given as a SMILES string. Entries after “also recorded” stand apart in the source; their conditions may differ. Where two headings read alike, the source gives them in different places. Some results are limits rather than exact numbers.

One series has as its system M. bovis BCG wild-type. The series is classed as cell-based. Particulars: Raw 264.7 macrophages; 40 µM; 72 h post-infection; vs DMSO.
A further series concerns the target MptpB (Mycobacterium tuberculosis, UniProt I6WXK4). As to the kind of experiment: biochemical. Particulars: pNPP assay, pH 6.
Another series relates to M. bovis BCG ΔsapM. The series is classed as cell-based. Particulars: 40 µM.
In the next series the test system is Mtb H37Rv strain. As to the kind of experiment: Mycobacterium tuberculosis infection assay in THP-1 macrophages. Format: cell-based. The note with it: resting THP-1 macrophages; 1 µM and 40 µM; 24 h and 72 h post infection.
The next series deals with MptpA (Mycobacterium tuberculosis, UniProt P9WIA1). As to the kind of experiment: biochemical. Particulars: pNPP assay, pH 6.
Sequence of MptpA (P9WIA1 whole entry): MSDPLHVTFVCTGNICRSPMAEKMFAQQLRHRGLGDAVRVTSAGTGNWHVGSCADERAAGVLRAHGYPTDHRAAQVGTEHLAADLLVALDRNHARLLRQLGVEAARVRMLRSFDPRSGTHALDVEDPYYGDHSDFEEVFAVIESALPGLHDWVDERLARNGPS
Series [1] has as its target T1, SapM (Mycobacterium tuberculosis, UniProt O53361).
T1 construct: made in house; host or cells: Escherichia coli C41 (DE3)
T1 sequence (O53361 44-299): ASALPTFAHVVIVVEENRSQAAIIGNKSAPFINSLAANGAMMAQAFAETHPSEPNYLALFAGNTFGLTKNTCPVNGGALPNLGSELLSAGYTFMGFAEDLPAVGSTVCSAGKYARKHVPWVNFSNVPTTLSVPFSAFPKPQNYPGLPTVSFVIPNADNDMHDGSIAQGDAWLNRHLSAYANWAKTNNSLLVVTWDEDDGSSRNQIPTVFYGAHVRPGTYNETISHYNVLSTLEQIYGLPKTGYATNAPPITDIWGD
As to the kind of experiment: biochemical. Particulars: for remaining activity at 100 µM: 0.5 h, relative to pNPP DMSO control, read-out: %SA (percentage specific activity of SapM); for remaining activity at 100 µM / effect on SapM enzyme activity: compounds at 100 µM; for IC50: pNPP assay, dose-response. The series is classed as biochemical.

The next series has as its target T2, PTP1B (Homo sapiens, UniProt P18031).
T2 sequence (P18031 1-435): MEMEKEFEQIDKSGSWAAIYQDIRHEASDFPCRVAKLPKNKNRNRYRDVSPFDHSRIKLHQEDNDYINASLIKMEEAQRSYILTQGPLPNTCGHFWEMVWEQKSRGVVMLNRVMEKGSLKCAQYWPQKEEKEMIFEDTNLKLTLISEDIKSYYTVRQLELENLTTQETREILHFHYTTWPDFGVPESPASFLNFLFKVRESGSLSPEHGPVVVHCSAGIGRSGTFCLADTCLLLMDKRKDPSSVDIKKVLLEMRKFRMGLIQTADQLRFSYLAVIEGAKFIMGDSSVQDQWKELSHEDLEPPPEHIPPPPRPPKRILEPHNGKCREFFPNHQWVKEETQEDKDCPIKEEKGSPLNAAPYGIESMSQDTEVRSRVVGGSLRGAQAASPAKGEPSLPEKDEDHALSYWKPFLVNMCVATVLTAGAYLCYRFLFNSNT
As to the kind of experiment: hPTP1B inhibition, pNPP assay. The series is classed as biochemical.

The target of series [2] is T1, SapM. As to the kind of experiment: Type of inhibition of SapM, Lineweaver-Burk plots. The series is classed as biochemical. The source says:
To determine the type of inhibition different inhibitor concentrations were selected to yield around 30% and 75% inhibition for each concentration of pNPP. This ensures sufficient signal to obtain accurate data while allowing a significant inhibition effect. Velocity (V) was plotted as a function of pNPP concentration and fit in a Lineweaver–Burk plot (double-reciprocal) using GraphPad Prism 8.41. All assays were done in 96-well microplates and performed in triplicate in at least two independent experiments.

For series [3], the target named is T1, SapM. As to the kind of experiment: Microscale thermophoresis of SapM binding. The note with it: for EC50: MST titration. The procedure:
Microscale thermophoresis (MST) was used to study the direct binding interaction of SapM with three compounds 1, 2 and 13. SapM was labelled with NTA-647nm dye which attaches to the 6-histidine tag. 100 nM NTA-647 was incubated with 200 nM SapM for 1-hour at 4 °C and then centrifuged at 20,000 rcf for 20 minutes at 4 °C in 20 mM HEPES, 200 mM NaCl pH 7.0. 10 mM compound was diluted to 500 μM in the same buffer. Binding checks were carried out with labelled SapM (5 nM) with and without 250 nM compound with LED power of 20% and a medium MST power in a Monolith Pico instrument and using standard capillaries. Binding analysis was performed with a doubling serial dilution from 250 nM with 16 dilutions and a constant concentration of 5 nM labelled SapM.

For the next series, the target named is VHR (Homo sapiens, UniProt P51452). As to the kind of experiment: hVHR inhibition, pNPP assay. The series is classed as biochemical.
Sequence of VHR (P51452 whole entry): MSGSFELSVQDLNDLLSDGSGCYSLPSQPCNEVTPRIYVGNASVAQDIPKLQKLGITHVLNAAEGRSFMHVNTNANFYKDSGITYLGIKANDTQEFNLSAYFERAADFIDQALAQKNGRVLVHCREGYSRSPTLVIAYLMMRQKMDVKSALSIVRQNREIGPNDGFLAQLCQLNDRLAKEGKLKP
The subject of series [4] is Francisella tularensis live vaccine strain (LVS). The series is classed as cell-based. The note with it: MH-S macrophages; 40 μM; 24 h post infection.
The subject of the next series is F. tularensis. The series is classed as cell-based, Francisella tularensis. Particulars: 40 µM; 24 h.
Series [5] is described as follows: MTT cytotoxicity assay, MH-S. The note with it: mouse, MH-S cells (SV40-transformed alveolar macrophage cell line).
Series [6] is described as follows: Compound precipitation in enzyme assays. Format: physicochemical. Particulars: AcpA Malachite Green assay.
The target in series [7] is T3, AcpA (Francisella tularensis subsp. novicida, UniProt A0Q436). As to the kind of experiment: biochemical. The note with it: 1 mM; read-out: inhibition of enzymatic activity of AcpA.
T3 sequence (A0Q436 21-514 limits assumed): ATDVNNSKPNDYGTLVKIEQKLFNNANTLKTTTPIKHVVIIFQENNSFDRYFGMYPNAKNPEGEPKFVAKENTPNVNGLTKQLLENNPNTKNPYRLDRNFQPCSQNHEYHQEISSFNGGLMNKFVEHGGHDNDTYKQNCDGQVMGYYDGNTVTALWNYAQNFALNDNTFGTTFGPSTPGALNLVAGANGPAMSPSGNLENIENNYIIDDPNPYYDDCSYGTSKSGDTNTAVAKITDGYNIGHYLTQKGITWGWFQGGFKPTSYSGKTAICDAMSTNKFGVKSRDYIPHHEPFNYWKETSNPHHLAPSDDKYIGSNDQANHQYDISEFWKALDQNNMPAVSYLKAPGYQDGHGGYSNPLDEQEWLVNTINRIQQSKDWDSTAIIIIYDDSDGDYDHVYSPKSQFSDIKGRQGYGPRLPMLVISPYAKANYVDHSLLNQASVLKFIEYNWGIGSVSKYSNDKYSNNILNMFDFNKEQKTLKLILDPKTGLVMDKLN
Series [8] concerns the target T3, AcpA. As to the kind of experiment: biochemical.
Series [9] concerns the target T1, SapM. Also on record: method as in PMID 31312014. Particulars: previously reported; cited from earlier work.

Sequence of MptpB (I6WXK4 whole entry, looked up): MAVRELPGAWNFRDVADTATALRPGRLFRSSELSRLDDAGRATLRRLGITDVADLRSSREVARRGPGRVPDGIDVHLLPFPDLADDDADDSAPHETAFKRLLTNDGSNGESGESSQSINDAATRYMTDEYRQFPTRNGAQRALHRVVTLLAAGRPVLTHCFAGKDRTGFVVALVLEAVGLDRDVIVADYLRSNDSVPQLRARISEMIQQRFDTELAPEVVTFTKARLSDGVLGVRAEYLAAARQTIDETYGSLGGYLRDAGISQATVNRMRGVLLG

For `O=c1oc2c(cc1O)oc(=O)c1cc(O)c(O)c(O)c12` [Compound 2, Galloflavin], the “intracellular burden of wild-type M. bovis BCG” value in the series with M. bovis BCG wild-type was “reduced the intracellular burden”. The IC50 at MptpB is more than 100 µM; against MptpA it was 55.2 ± 1.1 µM; at SapM [1] it was 9.3 ± 1.1 µM; against PTP1B, more than 100 µM; against VHR it was more than 100 µM. Further, in the series with M. bovis BCG ΔsapM, the “intracellular burden of ΔsapM” value is reported as “did not further reduce the intracellular burden”. For the same compound, the “Mtb intracellular burden vs DMSO control” value with Mtb H37Rv strain is reported as “significant (****p < 0.0001) reduction”. Also, the remaining activity at 100 µM at SapM [1] stood at 0%. The “effect on SapM enzyme activity” value at SapM [1] is listed as “completely abolished the enzymatic activity; also recorded: inhibits SapM activity completely”. The “mechanism of inhibition of SapM” value at SapM [2] is listed as “uncompetitive inhibitors”. For the same compound, the “binding to SapM by MST” value on SapM [3] is on record as “confirmed”. Further, the EC50 on SapM [3] (read-out: Single species dose response EC50) is 32 ± 16 µM.
Turning to `N#CC(C#N)=C(N)/C(C#N)=C/c1cc(O)c(O)c(O)c1` [Compound 1, Tyrphostin 51], the “reduction of F. tularensis intracellular burden” value in series [4] turned out to be 55%. Further, in the series with M. bovis BCG wild-type, the “intracellular burden of wild-type M. bovis BCG” value is recorded as “reduced the intracellular burden”. For the same compound, the IC50 at MptpB was more than 100 µM. In addition, the “intracellular burden of ΔsapM” value in the series on M. bovis BCG ΔsapM is on record as “did not further reduce the intracellular burden”. Further, the “Mtb intracellular burden vs DMSO control” value with Mtb H37Rv strain is on record as “significant (****p < 0.0001) reduction”. In addition, the IC50 against MptpA came to 19.8 ± 1 µM. Also, at SapM [1], the remaining activity at 100 µM came to 0%, the “effect on SapM enzyme activity” value is “completely abolished the enzymatic activity; also recorded: abolished enzyme activity completely” and the IC50 was determined as 6.3 ± 1 µM. For the same compound, the “mechanism of inhibition of SapM” value on SapM [2] was “uncompetitive inhibitors”. Besides, the “acellular growth of F. tularensis” value in the series with F. tularensis is “does not affect acellular growth”. In addition, the “binding to SapM by MST” value on SapM [3] is reported as “confirmed”. The compound further yielded a concentration for a half-maximal effect (EC50) on SapM [3] (Bivalent fit EC50 (1), tighter binding mode) of 0.52 µM. In series [5], this compound registered a viability at 24 h of more than 70%. In series [6], the “concentration at which compound precipitates” value is not below 2000 µM. Moreover, the inhibition at 1000 µM at AcpA [7] was approximately 30%.
As for `O=C1O[C@H]([C@@H](O)CO)C(O)=C1OP(=O)(O)O` [Compound 2P-AC, 2-phospho-L-ascorbic acid], the values for the IC50 at AcpA [8] and at SapM [9] were 116 ± 1.02 µM and more than 200 µM, respectively.
